Positions count from the first letter of the chain named. Where a SMILES comes first, the peptide text is derived from it. Bridges are numbered along the chain shown (N, C = ends).
How the values were obtained:
[1] = molecular target: T1, rGHBP (Rattus norvegicus, UniProt P16310); experiment: Species specificity of binding by ELISA and BIAcore, rGHBP; conditions: in words
T1 construct: 1–48 of GHBP; The 3′ oligo used for this reaction encoded the mutation L43R (CTG→AGA); The second PCR reaction amplified the DNA encoding amino acids 38–260; 6xHis; made in house
T1 sequence (P16310 19-278 isoform P16310-2): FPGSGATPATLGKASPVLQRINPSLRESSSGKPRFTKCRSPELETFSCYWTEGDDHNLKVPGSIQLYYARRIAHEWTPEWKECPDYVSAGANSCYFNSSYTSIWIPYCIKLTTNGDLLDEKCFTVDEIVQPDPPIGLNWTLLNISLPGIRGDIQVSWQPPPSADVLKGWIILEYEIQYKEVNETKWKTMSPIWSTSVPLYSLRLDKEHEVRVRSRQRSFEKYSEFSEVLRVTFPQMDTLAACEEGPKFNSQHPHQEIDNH
Experimental: (§1) Wells were coated with either recombinant rGHBP or ‘hu’ GHBP (100 ng/well). Additions of H5 (SEQ ID NO:8) and H10 (SEQ ID NOS:9, 80, and 81) phage (10^10/well) and detection were made as described. […] Streptavidin chips were coated with H5 (SEQ ID NO:8) to 1100 RU as described and rGHBP or ‘hu’ GHBP (500 μg/ml) injected as 30 μl samples.
(§2) Growth hormone receptors from different species bind human GH as well as their own GH, however human GHR only binds human or monkey GH. […] The sequence of rGHBP was altered by PCR to create a “humanized” version (‘hu’ GHBP; FIG. 9A). Partially purified ‘hu’GHBP (FIG. 9B) was tested for binding using ELISA and BIAcore analysis. […] This was confirmed by BIAcore analysis (FIG. 10B).
(§3) The biotinylated control peptide (SEQ ID NO:10) was immobilized onto one flow cell of a SA-5 (streptavidin coated) sensor chip to a final density of 700 RU. On a second flow cell, either hGH (1100 RU final density), H5WT peptide (SEQ ID NO:8; 1100 RU final density), or bGH (730 RU final density) was immobilized. GHBP (either rat or humanized) was injected at a concentration of 500 μg/ml with a flow rate of 5 μl/min. Background binding to the control surface was subtracted prior to further analysis.

[2] = molecular target: T2, rat growth hormone receptor (Rattus norvegicus, UniProt P16310); experiment: Cell proliferation assay (WST-1) in FDC-1 cells stably transfected with rat growth hormone receptor; format: cell-based; conditions: 18 h
T2 construct: expressed in transfected cells; host or cells: FDC-1 cells
T2 sequence (P16310 19-638): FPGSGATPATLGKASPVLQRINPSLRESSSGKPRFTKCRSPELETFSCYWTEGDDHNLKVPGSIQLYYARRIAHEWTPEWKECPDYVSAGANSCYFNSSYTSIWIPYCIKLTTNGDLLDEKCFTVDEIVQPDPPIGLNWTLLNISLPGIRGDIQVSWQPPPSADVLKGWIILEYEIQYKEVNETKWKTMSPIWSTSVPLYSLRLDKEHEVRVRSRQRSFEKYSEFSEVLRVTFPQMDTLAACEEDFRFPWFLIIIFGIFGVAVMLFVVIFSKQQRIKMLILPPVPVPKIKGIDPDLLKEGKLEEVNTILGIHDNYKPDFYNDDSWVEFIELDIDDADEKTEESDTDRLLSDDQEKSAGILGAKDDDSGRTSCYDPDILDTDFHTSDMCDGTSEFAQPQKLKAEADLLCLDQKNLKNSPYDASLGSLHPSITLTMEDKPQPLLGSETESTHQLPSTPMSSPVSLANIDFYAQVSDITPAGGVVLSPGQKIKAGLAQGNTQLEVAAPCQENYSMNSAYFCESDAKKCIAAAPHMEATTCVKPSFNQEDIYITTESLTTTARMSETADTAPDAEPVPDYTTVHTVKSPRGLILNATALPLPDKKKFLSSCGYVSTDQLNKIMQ
Experimental: Cells transfected with rat GHR (50,000 cells per well) were incubated with either bovine GH, H5 peptide (SEQ ID NO:8), 447 peptide (SEQ ID NO:11) or control peptide (SEQ ID NO:10) for 18 h at 37° C. Experiments were done in triplicate. Background signal A450=0.15. […] Cells transfected with rat GHR (50,000 cells per well) containing […] bovine GH were incubated with either control peptide (SEQ ID NO:10), H5 peptide (SEQ ID NO:8) or 447 peptide (SEQ ID NO:11) for 18 h at 37° C. Proliferation was measured using WST-1 reagent. The “*” symbol corresponds to the A450 measurement for the cells incubated without GH.
Agonistic and antagonistic activities of the two peptides, H5WT (SEQ ID NO:8) and bP#447 ([…]), were tested in FDC-1 cells stably transfected with the gene encoding the rat growth hormone receptor. The resulting cell line required either IL-3 or GH for growth. The cells were grown in RPMI 1640 medium containing 10% FCS (fetal calf serum) and 20 units of IL-3 per ml. […] activity assays were performed in a total volume of 100 μl in 96 well plates (flat bottom). Cells were seeded at 50,000 cells/well in 50 μl RPMI 1640 (without IL-3) medium containing horse serum instead of FCS to reduce background. To duplicate wells, 50 μl of either growth hormone or peptides at different concentrations was added, followed by incubation for 18 h in a CO2 incubator. Assays to measure the antagonistic activity were performed in a total volume of 100 μl in 96 well plates. Either H5WT peptide (SEQ ID NO:8), bP#447 peptide (SEQ ID NO:11), or control peptide (SEQ ID NO:10) was added to cells containing 0.003 μM of bovine GH and incubated at 37° C. for 18 h in a CO2 incubator. Proliferation assays were performed using WST-1 reagent. The WST-1 tetrazolium salt (light red color) is cleaved to formazan (dark red color) by the succinate-tetrazolium reductase system, which is active only in viable cells. […] Ten microliters of WST-1 reagent was added and the plates incubated for 1–4 h 37° C. Proliferation was measured by absorbance at 450 nm.

[3] = molecular target: T3, ‘hu’ GHBP (Rattus norvegicus, UniProt P16310, L61R); experiment: Species specificity of binding by ELISA and BIAcore, 'hu' GHBP; conditions: in words
T3 construct: 1–48 of GHBP; The 3′ oligo used for this reaction encoded the mutation L43R (CTG→AGA); The second PCR reaction amplified the DNA encoding amino acids 38–260; 6xHis; made in house
T3 sequence (P16310 19-278 isoform P16310-2 L61R): T1 sequence (P16310 19-278 isoform P16310-2) with L43R
Experimental: as §1, §2, §3

SMILES: CC(C)C[C@@H]1NC(=O)[C@H](CO)NC(=O)[C@H](CCC(N)=O)NC(=O)[C@@H](NC(=O)[C@H](CC(C)C)NC(=O)[C@H](CC(=O)O)NC(=O)[C@H](CCCCN)NC(=O)[C@H](Cc2ccc(O)cc2)NC(=O)[C@@H](N)CC(=O)O)CSSC[C@@H](C(=O)N[C@@H](C)C(=O)N[C@@H](CCCCN)C(=O)N[C@@H](CCCCN)C(=O)O)NC(=O)[C@H](Cc2c[nH]c3ccccc23)NC(=O)CNC(=O)[C@H](C)NC(=O)[C@H](CC(C)C)NC(=O)[C@H](Cc2c[nH]c3ccccc23)NC(=O)CNC(=O)[C@@H]2CCCN2C(=O)[C@H](Cc2ccc(O)cc2)NC(=O)[C@H]([C@@H](C)O)NC(=O)[C@H](C(C)C)NC(=O)CNC1=O [H5] (H-DYKDLCQSLGVTYPGWLAGWCAKK-OH; disulfide 6-21; N-terminus and C-terminus assumed)
- binding to rGHBP [1]: bound to rGHBP
- antagonistic activity ([2]; cells with 0.003 μM bovine GH, at the concentrations tested): no antagonistic activity
- agonistic activity ([2]; no GH added, WST-1 A450): partial agonistic activity
- binding to ‘hu’ GHBP [3]: not ‘hu’GHBP

— patent US7148193B2, “Compounds that bind to growth hormone receptor” (Antyra, Inc., priority 1997, dated 2006)
